{"source": "patent US11225474B2", "about": "“Crystalline salt forms of 3-(1,2,4-triazolo[4,3-a]pyridine-3-ylethynyl)-4-methyl-N-(4-((4-methylpiperazin-1-yl)methyl)-3-trifluoromethylphenyl)benzamide for medical application” (priority 2016, dated 2022)", "key": {"[1]": {"assay": "Dissolution kinetics (USP Apparatus 1 Basket Method)", "format": "physicochemical", "conditions": "780 minutes after beginning; medium distilled water", "quoted_text": "During further studies of the polymorphous modifications of the methanesulfonic acid salt of 3-(1,2,4-triazolo[4,3-a]pyridine-3-ylethynyl)-4-methyl-N-(4-((4-methylpiperazine-1-yl)methyl)-3-trifluoromethylphenyl)benzamide, the kinetics of dissolution of the free base and the two methanesulfonic acid salt form polymorphous modifications was studied. Dissolution kinetics studies were performed using USP Apparatus 1 Basket Method (USP40, General Chapter <711>. Dissolution), dissolution media volume—700 mL, temperature—37±1° C. paddle stirrers' rotation rate—100 rpm. The test sample dissolution rate was calculated as an average of six repeats. Distilled water was used as the dissolution medium for the polymorphous modifications of 3-(1,2,4-triazolo[4,3-a]pyridine-3-ylethynyl)-4-methyl-N-(4-((4-methylpiperazine-1-yl)methyl)-3-trifluoromethylphenyl)benzamide methanesulfonic acid salt and, and a solution of 12.2 mL of methanesulfonic acid in 500 mL of water was used as the dissolution medium for the free base. Test portions containing 100 mg of 3-(1,2,4-triazolo[4,3-a]pyridine-3-ylethynyl)-4-methyl-N-(4-((4-methylpiperazine-1-yl)methyl)-3-trifluoromethylphenyl)benzamide or 118 mg of 3-(1,2,4-triazolo[4,3-a]pyridine-3-ylethynyl)-4-methyl-N-(4-((4-methylpiperazine-1-yl)methyl)-3-trifluoromethylphenyl)benzamide methanesulfonic acid salt (100 mg calculated as free base) were used for dissolution. In 780 minutes (13 hours) after the beginning of the test, pH of prepared solutions was measured."}, "[2]": {"assay": "in vivo", "parameters": "species or system C57BL/6 line mice", "procedure": "FIGS. 52A-52B. […] The mean values were determined for each time point on the basis of the individual data obtained from three animals.\nThe results of the study are given in FIG. 52 and in Tables 14 and 15."}, "[3]": {"assay": "Stability, 7 days at T = 60° C.", "format": "physicochemical", "conditions": "for Crystallinity in 7 days / Relative peak area, in 7 days: 7 days at T = 60° C.; for Relative peak area, initial: before storage; for content of impurities: kept seven days at 60° C."}, "[4]": {"assay": "Stability of polymorph modifications, suspending in acetone for 6 days", "format": "physicochemical", "conditions": "for crystalline structure after suspending in acetone: 6 days; for Crystallinity in 6 days: suspending in acetone for 6 days, room temperature", "procedure": "Crystallinity of all samples obtained was studied using the method of X-ray powder diffraction (to study the crystallinity structure). Diffraction patterns were obtained at a temperature of 25° C. […] Survey step 0.02° 2θ, angle range 3-45° 2θ. Diffraction patterns obtained were studied in detail using X'Pert HighScore Plus software package."}, "[5]": {"assay": "Hygroscopicity by gravimetric moisture absorption", "format": "physicochemical", "conditions": "for water absorbed (hygroscopicity): relative air humidity of 90%", "text": "Samples were also studied using the following methods: polarization microscopy (Leica DMRB Polarized Microscope, resolution of 1600×1200)—to confirm crystallinity, ion chromatography—to confirm anion and cation stoichiometric proportion, differential scanning calorimetry (DSC) and thermogravimetric analysis (TGA)—to confirm composition and study of temperature stability of samples; ^1H NMR (500 MHz Bruker AVANCE 500.13 MHz, solvent DMSO-d6)—to confirm structure, assess purity and content of organic solvents; gravimetric moisture absorption—to assess hygroscopicity. DSC was carried out using Mettler 822e DSC apparatus. The measuring system was calibrated according to ISO 11357-1 standard based on standard substances phase changes (C6H12; Hg; benzoic acid; Ga; KNO3; In; Sn; Bi; CsCl; purity grade 99.99%). Temperature calibration regular error (determined based on In) is 0.1°. Samples were tested in standard aluminum cells in the artificial air flow at a temperature range of 30-300° C. with heating speed of 10°/min. TG measurements were taken using Mettler 851e SDTA/TGA TG analyzer. The apparatus was calibrated using standard substances melting points (Ag; Al; Bi; In; Sn; purity grade of 99.99%). Weighing error is NMT 0.1% (determined using CaC2O4·2H2O standard). The test was carried out in a standard open aluminum container in the artificial air flow at a temperature range of 30-150° C. with heating speed of 10°/min. To avoid dehydration, the material was not exposed to mechanical treatment before taking measurements."}, "[6]": {"conditions": "for pH: equilibrium solubility test in water; for Crystallinity in 24 h: solid in water, equilibrium solubility test"}, "[7]": {"assay": "physchem", "format": "physicochemical", "conditions": "deionized water, RT"}, "[8]": {"conditions": "mesylate polymorphous modification I 59 mg/kg (50 mg/kg as free base), single oral, C57BL/6 mice"}}}
{"smiles": "CS(=O)(=O)O.Cc1ccc(C(=O)Nc2ccc(CN3CCN(C)CC3)c(C(F)(F)F)c2)cc1C#Cc1nnc2ccccn12", "note": "[methanesulfonic acid salt (polymorphous modification II)] [3-(1,2,4-triazolo[4,3-a]pyridine-3-ylethynyl)-4-methyl-N-(4-((4-methylpiperazin-1-yl)methyl)-3-trifluoromethylphenyl)benzamide mono methanesulfonic acid salt, polymorphous modification II]", "values": [{"measurement": "pH of prepared solution", "setting": "[1]", "value": 4.95}, {"measurement": "differences in all pharmacokinetic parameters studied versus polymorphous modification I", "setting": "[2]; mouse, in vivo", "value": "No statistically true differences in all pharmacokinetic parameters studied were revealed after administration of the salt form as polymorphous modification II (p < 0.05)."}]}
{"smiles": "Cc1ccc(C(=O)Nc2ccc(CN3CCN(C)CC3)c(C(F)(F)F)c2)cc1C#Cc1nnc2ccccn12.O=C(O)/C=C/C(=O)O", "note": "[HAL-G-196-29]", "values": [{"measurement": "Crystallinity in 7 days", "setting": "[3]", "value": "Cryst."}, {"measurement": "Relative peak area, in 7 days", "setting": "[3]", "value": 99.9, "unit": "%"}, {"measurement": "Relative peak area, initial", "setting": "[3]", "value": 99.8, "unit": "%"}, {"measurement": "content of impurities", "setting": "[3]", "value": "remained constant"}, {"measurement": "crystalline structure after suspending in acetone", "setting": "[4]", "value": "remained unchanged"}, {"measurement": "Crystallinity in 6 days", "setting": "[4]", "value": "Cryst."}, {"measurement": "water absorbed (hygroscopicity)", "setting": "[5]", "value": "less than four mass percent of water"}, {"measurement": "pH", "setting": "[6]", "value": 4.2}, {"measurement": "Crystallinity in 24 h", "setting": "[6]", "value": "Cryst."}]}
{"smiles": "Cc1ccc(C(=O)Nc2ccc(CN3CCN(C)CC3)c(C(F)(F)F)c2)cc1C#Cc1nnc2ccccn12.Cc1ccc(S(=O)(=O)O)cc1", "note": "[HAL-G-196-24]", "values": [{"measurement": "Crystallinity in 7 days", "setting": "[3]", "value": "Cryst."}, {"measurement": "Relative peak area, in 7 days", "setting": "[3]", "value": 99.9, "unit": "%"}, {"measurement": "Relative peak area, initial", "setting": "[3]", "value": 99.8, "unit": "%"}, {"measurement": "content of impurities", "setting": "[3]", "value": "remained constant"}, {"measurement": "crystalline structure after suspending in acetone", "setting": "[4]", "value": "remained unchanged"}, {"measurement": "water absorbed (hygroscopicity)", "setting": "[5]", "value": "less than four mass percent of water"}, {"measurement": "pH", "setting": "[6]", "value": 3.5}, {"measurement": "Crystallinity in 24 h", "setting": "[6]", "value": "Cryst."}]}
{"smiles": "CS(=O)(=O)O.Cc1ccc(C(=O)Nc2ccc(CN3CCN(C)CC3)c(C(F)(F)F)c2)cc1C#Cc1nnc2ccccn12", "note": "[methanesulfonic acid salt (polymorphous modification I)] [3-(1,2,4-triazolo[4,3-a]pyridine-3-ylethynyl)-4-methyl-N-(4-((4-methylpiperazin-1-yl)methyl)-3-trifluoromethylphenyl)benzamide mono methanesulfonic acid salt, polymorphous modification I]", "values": [{"measurement": "pH of prepared solution", "setting": "[1]", "value": 5.04}, {"measurement": "AUC0-24", "setting": "[2]; [8]", "value": "11,933 ngh/mL"}, {"measurement": "AUC0-24/24", "setting": "[2]; [8]", "value": 497, "unit": "ng/mL"}, {"measurement": "AUC0-∞", "setting": "[2]; [8]", "value": "12,103 ng · h/mL"}, {"measurement": "Cmax", "setting": "[2]; [8]", "value": "1,099 ng/mL"}, {"measurement": "T1/2", "setting": "[2]; [8]", "value": 3.8, "unit": "h"}, {"measurement": "Tmax", "setting": "[2]; [8]", "value": 4, "unit": "h"}]}
{"smiles": "Cc1ccc(C(=O)Nc2ccc(CN3CCN(C)CC3)c(C(F)(F)F)c2)cc1C#Cc1nnc2ccccn12.Cl", "note": "[HAL-G-196-3]", "values": [{"measurement": "Crystallinity in 7 days", "setting": "[3]", "value": "Form II"}, {"measurement": "Relative peak area, in 7 days", "setting": "[3]", "value": 99.9, "unit": "%"}, {"measurement": "Relative peak area, initial", "setting": "[3]", "value": 99.9, "unit": "%"}, {"measurement": "content of impurities", "setting": "[3]", "value": "remained constant"}, {"measurement": "crystalline structure after suspending in acetone", "setting": "[4]", "value": "remained unchanged"}, {"measurement": "Crystallinity in 6 days", "setting": "[4]", "value": "Form II"}, {"measurement": "water absorbed (hygroscopicity)", "setting": "[5]", "value": "less than 8 mass percent"}, {"measurement": "pH", "setting": "[6]", "value": 4.0}, {"measurement": "Crystallinity in 24 h", "setting": "[6]", "value": "Amorphous"}]}
{"smiles": "Cc1ccc(C(=O)Nc2ccc(CN3CCN(C)CC3)c(C(F)(F)F)c2)cc1C#Cc1nnc2ccccn12.Cl", "note": "[HAL-G-196-2]", "values": [{"measurement": "Apparent solubility", "setting": "[7]", "value": ">29", "unit": "mg/mL"}, {"measurement": "sample hygroscopicity (water sorption and desorption)", "setting": "[5]; gravimetric moisture absorption", "value": "desorbed and sorbed water, the volume of which corresponded to a dihydrate"}]}
{"smiles": "Br.Cc1ccc(C(=O)Nc2ccc(CN3CCN(C)CC3)c(C(F)(F)F)c2)cc1C#Cc1nnc2ccccn12", "note": "[HAL-G-196-7]", "values": [{"measurement": "water absorbed (hygroscopicity)", "setting": "[5]", "value": "more than ten mass percent of water and thawed in the air"}]}
